Laboratory results from patent US10076525B2, “Sex steroid precursors alone or in combination with selective estrogen receptor modulators for the prevention and treatment of dyspareunia in postmenopausal women” (ENDORECHERCHE, INC., priority 2004, dated 2018).

Key:
rat vagina = assay: Histomorphometry: thickness of vaginal layers at the fifth segment; type: in vivo; conditions: OVX rats, 36 wk
Source text: Animals from the intact and OVX control groups received the vehicle alone.
Twenty-four hours after the last dosing, overnight fasted animals were sacrificed under isoflurane anesthesia by exsanguination at the abdominal aorta (9 animals per group) or by intracardiac perfusion with 10% neutral buffered formalin (5 animals per group). Vaginae from non-perfused animals were collected and weighed, while the vaginae collected from perfused animals were marked with black ink on the ventral side, and then trimmed as described below.
The entire vagina of each perfused animal was post-fixed in 10% neutral buffered formalin.
Measurements of the different vaginal layers were performed on the fifth segment (FIG. 1), which is approximately halfway between the middle region and the portio vaginalis uteri (segment 7). […] Images were captured with a DC-330 3CCD color camera (Dage-MTI, Michigan City, Ind., USA) and quantified using Image-Pro Plus 3.0 software (Media Cybernetics, Silver Spring, Md., USA). Thus, using a ×5 objective (Leica Microsystems, Willowdale, Ont., Canada), 3 to 4 thickness measurements per layer were obtained from representative areas of the epithelium and muscularis, and for the three vaginal layers together. The total vaginal thickness, the thickness of the epithelium and the thickness of the muscularis were thus measured. The thickness of the lamina propria was obtained by subtracting the thickness of the epithelium and muscularis from total vaginal thickness.
Data are presented as means±SEM of 8-9 animals per group for vaginal weight or 5 animals per group for vaginal layer thickness determinations. Statistical significance was determined according to the multiple-range test of Duncan-Kramer (Kramer, 1956, Biometrics, 12: 307-310).

[1] = Serum concentration of DHEA after intravaginal application; type: in vivo; conditions: female, rat
Source text: The insertion into the vagina of one suppository began on day 5 of the study and was continued once daily until day 18 of the study, for a total of 14 days of treatment. The suppository was gently placed in the vaginal opening and then delicately pushed about 2-3 mm inside the vagina with the help of a small, smooth glass stick, disinfected in 70% alcohol and dried between each animal.

**Q.** Which “total vaginal thickness lower than that of the Premarin alone-treated group” value (rat vagina; fifth segment) does the source give for C[C@]12CC[C@H](O)CC1=CC[C@@H]1[C@@H]2CC[C@]2(C)C(=O)CC[C@@H]12 [DHEA, dehydroepiandrosterone] here?
**A.** about 25%

**Q.** What about the muscularis thickness (rat vagina; fifth segment, mean±SEM) of the same compound?
**A.** 50±2 μm

**Q.** And the “thickness of the vaginal epithelium” value (rat vagina; fifth segment, mean±SEM)?
**A.** 38±4 μm

**Q.** And the “total vaginal wall thickness” value (rat vagina; fifth segment, mean±SEM, OVX 128±3, intact 262±39)?
**A.** 184±21 μm

**Q.** And the lamina propria thickness (rat vagina; fifth segment, mean±SEM, total minus epithelium and muscularis, OVX 76±2, intact 135±28)?
**A.** 96±20 μm

**Q.** What about the “reversal of the OVX-induced decrease of the vaginal muscular layer” value (rat vagina; 46% decrease after OVX) of the same compound?
**A.** 41%

**Q.** What about the “reversal of the OVX-induced decrease in total vaginal wall thickness” value (rat vagina; 50% decrease after OVX) of the same compound?
**A.** 42%

**Q.** What about the AUC ([1]; 0.33 mg) of the same compound?
**A.** 32 ± 4 ng·h/mL

**Q.** What about the AUC ([1]; 0.66 mg) of the same compound?
**A.** 50 ± 7 ng·h/mL

**Q.** What about the AUC ([1]; 1 mg) of the same compound?
**A.** 131 ± 23 ng·h/mL
